Assay type: physicochemical
Procedure: A machine perfusion solution of the invention may be prepared by combining the components described above with sterile water, such as distilled and/or deionized water. For example, to prepare the solution, approximately 700–900 mL, or preferably about 800 mL, of sterile water is poured into a one liter beaker at approximately room temperature. Although a one liter beaker is used in this example, any other container of any size may be used to prepare the solution, where the component amounts would be adjusted accordingly. In the most preferred embodiment, the following are added, in any order, to the solution and each is mixed until dissolved in the solution: approximately […] sodium gluconate, approximately […] potassium phosphate, approximately […] adenine, approximately […] of ribose, approximately […] of calcium chloride, and approximately 50 g modified pentastarch. The modified pentastarch is a fractionated colloid mixture of 40–60 kDaltons in diameter and is modified by infusing the pentastarch under 3 atm of pressure through a dialyzing filter with a bore size of about 40–60 kDaltons. About […] magnesium gluconate, approximately […] HEPES, approximately […] glucose, and approximately […] mannitol are also added, in any order, and mixed. Approximately 40 U of insulin is also added. […]

## CCCCC[C@H](O)/C=C/[C@H]1[C@H](O)CC(=O)[C@@H]1CCCCCCC(=O)O [modified PGE1, prostaglandin E1]
  half-life lengthened by a multiple: about 15

— patent US7014990B2, “Machine perfusion solution for organ and biological tissue preservation” (priority 2000, dated 2006)
